Data on four molecules can be found in US11034666B2, “Anti-inflammatory and antitumor 2-oxothiazoles and 2-oxothiophenes compounds” (Avexxin AS, priority 2013, dated 2021).

In assay [1] the test system is collagen-induced arthritis (CIA) mouse model. Put plainly: Prophylactic collagen-induced arthritis (CIA) study. In kind it is in vivo, male DBA/1 mice. On the procedure: The prophylactic effect of Compound A on CIA model in male DBA/1 mice^57 following intraperitoneal (ip) administration, treatment starting 1 hour prior to the last immunization was studied. A study comparing naïve mice (healthy, non-CIA, non-treated), vehicle-treated mice (CIA with DMSO, ip) and CIA mice treated daily with Compound A (7.5 mg/kg, ip) or MTX (0.3 mg/kg, ip) was performed. CIA developed rapidly in mice immunized with CII. In the prophylactic study, a 100% incidence of CIA was observed by day 29 in CII-immunized mice, with maximum AI of 8.55 observed at 41 days post immunization. The AI and incidence of all groups increased in a time-dependent mode from day 25 to day 41.
Separate prophylactic and therapeutic efficacy studies of COMPOUND A were performed. Methotrexate (MTX) (Jiangsu Hengrui Medicine Co, #11041411), Enbrel (Boehringer Ingelheim Pharma KG, # F39487), and vehicle (DMSO 100%, Sigma Aldrich # D2650) were administered to all groups via intraperitoneal injection once daily at a dose volume of 2 mL/kg. Observations for morbidity, mortality, injury, and the availability of food and water were conducted twice daily for all animals. Clinical observations were conducted daily during the study. Body weights were measured and recorded prior to randomization and then once daily during the study. Food consumption was measured and recorded daily. Biopsies for mid-term histology analysis were obtained on Day 13 in the prophylactic study. Necropsy examinations were performed at study termination; plasma samples were collected, organ weights were recorded
(§1) For the prophylactic and the therapeutic studies, CIA was induced in male DBA/1 mice (except naïve mice) by immunization with 0.1 mL emulsion containing an equal volume of bovine type II collagen solution (2 mg/mL) and Freuds Complete Adjuvant at the tail base. The first injection was given on Day 0 and the second injection as booster was given on Day 21 (41-43). COMPOUND A, vehicle (DMSO) and MTX (0.3 mg/kg) were administered daily, Enbrel (25 mg/kg) was administrated twice a week. For the prophylactic study, treatment started one hour before the second collagen injection and continued for 21 days except for the histology groups that were sacrificed at Day 13 ([…]). For the therapeutic study, treatment started at Day 28 and continued for 14 days.
CIA Assessment and Treatment. CIA was assessed in mice by two blinded observers to measure paw swelling with a capacity measurement method on Day 0, Day 20, Day 22, Day 25, Day 27, Day 29, Day 32, Day 34, Day 36, Day 39 and Day 41 after the first injection. The occurrence of arthritis was observed by scoring all paws for severity of erythema and swelling, using a clinical score ranging from 0 (no swelling) to 4 (severe swelling and erythema). The physical condition of the animals was observed daily. Scores and overall evaluation of the histology group arms were performed in the same way as the main groups. However, the values measured were not included in the mean value calculations of the main groups. The YLS-7B Foot Volume Measuring Instrument (Huaibei China Bio Equipment) was used to measure the foot volume of mice. The occurrence of arthritis was observed by scoring all paws for severity of erythema and swelling, using a clinical score ranging from 0 (no swelling) to 4 (severe swelling and erythema), i.e. yielding maximum arthritic index (AI) score 16 (46).
Measurement of the histopathology and clinical observations. At the end of the studies, one hind foot of each mouse was collected for histopathology. The foot including the ankle was fixed in 10% neutral formalin. The ankle joints were decalcified, dehydrated, embedded in paraffin, sectioned and stained with routine hematoxylin-eosin. The sections were studied using light microscopy (10×10 and 20×10 magnifications). Arthritis damage (histological damage score) was evaluated and scored by an investigator blinded for the treatment regimen. […]

For assay [2], the system named is PGE2. Put plainly: Plasma PGE2 EIA, prophylactic CIA study. Type of assay: in vivo, male DBA/1 mice. Conditions: prophylactic CIA study; Compound A 7.5 mg/kg, MTX 0.3 mg/kg; vehicle 223.4±107; mean ± SD. On the procedure: PGE2 is recognized as an important contributor to the joint inflammation in rheumatoid arthritis,^60 and we investigated if plasma PGE2 levels were changed in response to treatment. […] There were no significant differences between the treatment groups (p>0.05).
(§2) PGE2 EIA analysis of blood plasma from the prophylactic and therapeutic CIA studies was performed according to kit protocol. Plasma samples were diluted 1:1000-1:6000 in EIA buffer and allowed to hybridize over-night (18 hrs, 4° C.). The plate was read using a Multiscan plate reader (Ascent Labsystems) (OD550 nm). The corresponding Ascent software for Multiscan, Version 2.4.1 was used to obtain the data. PGE2 levels for all treatments are shown relative to the DMSO-treated vehicle arthritic mice (n=10-11 mice in each category±SD).
as §1

The subject of assay [3] is collagen-induced arthritis (CIA) mouse model. Put plainly: Therapeutic collagen-induced arthritis (CIA) study. Type of assay: in vivo, male DBA/1 mice. Conditions: Days 36 to 41; Compound A 30 mg/kg ip daily; Enbrel 25 mg/kg twice a week. The source says: The therapeutic effect of Compound A on CIA model in male DBA/1 mice following ip administration, treatment starting 7 days after the last immunization was explored. CIA developed rapidly in mice immunized with CII, with maximum AI of 10.2 observed at 39 days post immunization. The AI and incidence of vehicle- and Compound A treated groups increased in a time-dependent mode from Days 29 to 41. […] Compound A and Enbrel performed equally well; there were no significant difference between these treatments groups.
Separate prophylactic and therapeutic efficacy studies of COMPOUND A were performed. […] Body weights were measured and recorded prior to randomization and then once daily during the study. Food consumption was measured and recorded daily. […] Necropsy examinations were performed at study termination; plasma samples were collected, organ weights were recorded […]
CIA Assessment and Treatment. CIA was assessed in mice by two blinded observers to measure paw swelling with a capacity measurement method on Day 0, Day 20, Day 22, Day 25, Day 27, Day 29, Day 32, Day 34, Day 36, Day 39 and Day 41 after the first injection. […] However, the values measured were not included in the mean value calculations of the main groups. […]

The test system of assay [4] is PGE2. The assay can be described thus: Plasma PGE2 EIA, therapeutic CIA study. Type of assay: in vivo, male DBA/1 mice. Conditions: therapeutic CIA study; Compound A 30 mg/kg, Enbrel 25 mg/kg; vehicle 231.1±110; mean ± SD. On the procedure:
There were no significant differences between the treatment groups (p>0.05).
as §2, §1

Assay [5] has as its system rat streptozocin-induced model of human chronic renal disease. Put plainly: Rat streptozocin-induced model of human chronic renal disease, urine protein. Conditions: AVX235 10 mg/kg ip; losartan 30 mg/kg oral gavage daily; 2 weeks. In kind it is in vivo, Sprague Dawley rats. The procedure: The therapeutic effect of AVX235 was tested in the rat streptozocin-induced model of human chronic renal disease and compared against losartan (positive control).
Sprague Dawley rats (Harlan laboratories, USA) of an average weight of 130-150 grams were divided in groups of 8 animals per group and were treated according to table 7:
AVX235 was injected intraperitoneally, once daily for the first 4 days and then every two days. Losartan was administered daily, by oral gavage. At 2 weeks post experiment initiation, urine was collected over a period of 24 h and total protein in mg was measured.

Assay [6] has as its system MAS98.12 xenograft. Conditions: FIG. 1; data from an earlier study in the same animal model [13]; cited from earlier work.
[7] abbreviates: hind paw, Compound A 7.5 mg/kg, MTX 0.3 mg/kg.

In the case of `CN(Cc1cnc2nc(N)nc(N)c2n1)c1ccc(C(=O)N[C@@H](CCC(=O)O)C(=O)O)cc1` [MTX, Methotrexate, reference compound], the “arthritic index (AI) in comparison to the CIA control group (in words)” value in assay [1] (Days 32 to 41, Compound A 7.5 mg/kg ip daily, MTX 0.3 mg/kg ip daily) was “significantly reduced”. For the same molecule, in assay [1] (setting [7]), the “articular cavity and peripheral tissue inflammatory cell infiltration, histopathology vs vehicle (in words)” value is given as “did not reduce”; the “capillary and synovial hyperplasia, histopathology vs vehicle (in words)” value is listed as “did not reduce”; the “cartilage damage, histopathology vs vehicle (in words)” value is on record as “did not reduce”. For the same molecule, in assay [2], the “plasma PGE2 level” value was 107.3 ± 62 ng/mL.
On to Enbrel, for which the “arthritic index (AI) in comparison to the CIA control group (in words)” value in assay [3] is given as “significantly decreased”. In assay [4], the “plasma PGE2 level” value worked out at 187.5 ± 74 ng/mL.
Regarding `CCCCc1nc(Cl)c(CO)n1Cc1ccc(-c2ccccc2-c2nn[nH]n2)cc1` [losartan], the “therapeutic effect on STZ-induced urine protein (in words)” value in assay [5] was “protected rats from the STZ effect”.
`Cn1c(=O)n(-c2ccc(C(C)(C)C#N)cc2)c2c3cc(-c4cnc5ccccc5c4)ccc3ncc21` [BEZ235]: the “tumor volume (in words)” value in assay [6] is given as “tumor volumes are reduced”.
